The values that follow come from patent publication US8420696B2, “Use of low-dose ladostigil for neuroprotection” (priority 2005, dated 2013).

One experiment relates to ChE. The experiment is described as follows: In vivo ChE inhibition assay. Also noted: species or system cynomolgus monkeys. The settings on record: acute or chronic administration, amounts up to 7.0 mg/kg ladostigil base. As for the experimental part: The level of ChE inhibition can be determined by routine methods, including those detailed below.
In vivo measurement of ChE inhibition is similar to that of in vivo measurement of MAO inhibition, except that cynomolgus monkeys are treated, and tissues are examined for brain, plasma and erythrocytes ChE inhibition.

The subject of a further experiment is MAO-B. Briefly: In vivo MAO inhibition assay (MAO-B). Further details: species or system Rats and mice. As for the experimental part: (§1) The level of MAO (MAO-A and MAO-B) inhibition can be determined by routine methods, including those detailed below.
(§2) Rats and mice are treated by subcutaneous (s.c.) or intraperitoneal (i.p.) injection or oral (p.o.) administration of the compound to be tested. Animals are decapitated approximately 2 hours after drug treatment and MAO activity is determined in the brain, intestine, and/or liver. MAO activity is expressed as percentage of enzyme activity relative to a control group administered with vehicle only. Effective doses producing 50% MAO inhibition (ED50 values) are calculated from inhibition curves.
(§3) Repeated treatment by ladostigil (e.g. daily doses for 7 days) can be used to calculate inhibition achieved through chronic administration.

The subject of a further experiment is MAO-A. The experiment is described as follows: In vivo MAO inhibition assay (MAO-A). Also noted: species or system Rats and mice. As for the experimental part:
as §1, §2, §3

In experiment [1] the test system is rats injected icv with Aβ(1-40). The note with it: cited from earlier work.
Experiment [2] has as its system memory deficits after icv injections of STZ. The settings on record: chronic treatment; cited from earlier work.
[3] abbreviates: acute administration, amounts up to 20.4 mg/kg of ladostigil base.
Setting [4] is: chronic administration, amounts up to 4.5 mg/kg of ladostigil base.

Take “R(+)-6-(N-methyl,N-ethyl-carbamoyloxy)-N′-propargyl-1-aminoindan [ladostigil tartrate]”: the ChE inhibition entry in the experiment with ChE was “no more than 30%”. The “MAO inhibition (MAO-B)” value in the experiment with MAO-B (setting [3]) and with MAO-B (setting [4]) was “no more than 25%” each time. The “MAO inhibition (MAO-A)” value in the experiment with MAO-A (setting [3]) and in the experiment on MAO-A (setting [4]) was “no more than 25%” each time.
Regarding `CC12CC3CC(C)(C1)CC(N)(C3)C2` [memantine], in experiment [1], the “Activation of microglia and astrocytes and memory deficits after icv Aβ(1-40)” value is “reduced the activation of microglia and astrocytes and the memory deficits”.
With `COc1ccc2[nH]cc(CCNC(C)=O)c2c1` [melatonin], the “Memory deficits 3-8 weeks after icv STZ” value in experiment [2] is listed as “can be reduced”.
On to `Oc1ccc(C=Cc2cc(O)cc(O)c2)cc1` [resveratrol], for which the “Memory deficits 3-8 weeks after icv STZ” value in experiment [2] is listed as “can be reduced”.
